Results as given in patent US6605427B2, “Assay for detection of viral fusion inhibitors” (priority 2000, dated 2003).
Where two headings read alike, the source gives them in different places.

Biological target: HIV-1 gp41 core structure (six-helix bundle) formation (Human immunodeficiency virus type 1 group M subtype B, UniProt P04578)
Description: Two days following transfection, intact 293T cells transiently expressing the HIV-1 HXB2 envelope are incubated in the presence of the test compound. At the end of 1 h, 2 μg of soluble CD4 (sCD4) or a cell line expressing CD4 is added. At the end of an additional 1 h, the monoclonal antibody against the six-helix bundle structure is added at a concentration of 10 μg/ml and the mixture is allowed to incubate at 25° C. for 3 hr. Following this incubation the cells are washed 4 times with PBS and lysed with 1 ml lysis buffer (1% Triton X-100, 150 mM NaCl, and 50 mM Tris-Cl pH 7.4). […] Immunoprecipitated complexes are analyzed by 10% SDS-Page gel, transferred to nitrocellulose and immunoblotted with the anti-gp41 monoclonal antibody Chessie 8 (obtained from NIH AIDS Research and Reference Reagent Program) and detected by chemiluminescence and autoradiography.
The ability of the test compound to disrupt these critical conformational changes is assessed by characterizing the formation of the gp41 core structure. […]
The assay is a modified form of an immunoprecipitation (IP) assay and involves incubating the test compound with intact, virus-infected cells expressing the gp120/gp41 envelope complex on their surface. […] In these experiments the ability of a test compound to disrupt gp41 conformational changes was measured by determining its effect of core structure formation.

With `C=C(C)[C@@H]1CC[C@]2(C(=O)O)CC[C@]3(C)[C@H](CC[C@@H]4[C@@]5(C)CC[C@H](OC(=O)CC(C)(C)C(=O)O)C(C)(C)[C@@H]5CC[C@]43C)[C@@H]12` [DSB, dimethylsuccinylbetulinic acid] the “amount of gp41 immunoprecipitated following sCD4 triggering” value (100 μg/ml DSB (FIG. 8 lane 3)) was “further reduced to a level nearly identical to that recovered in the absence of CD4 triggering” and the “amount of gp41 immunoprecipitated following sCD4 triggering” value (10 Mg/ml DSB (FIG. 8 lane 2) versus no test compound (lane 1)) was “significantly greater than the amount of gp41 immunoprecipitated in the presence of 10 Mg/ml DSB”.
